Assay results: the NIST ThermoML archive (doi:10.1016/j.jct.2013.05.029)
± gives the expanded uncertainty stated by the source.

Columns and labels:
[1] = refractive index (other wavelength) (dimensionless); xn = mol fraction of the nth substance listed; settings: 101 kPa, Liquid, Wavelength=633 nm, Standard Abbe refractometry
[2] = 101.33 kPa, Liquid, Vibrating tube method
[3] = refractive index (other wavelength) (dimensionless); settings: 101 kPa, Liquid, Wavelength=633 nm, Standard Abbe refractometry
[4] = relative permittivity at various frequencies (dimensionless); settings: 101 kPa, Liquid, Frequency=0.151 MHz, Parallel plate capacitor

OCCC(F)(F)C(F)(F)C(F)(F)C(F)(F)C(F)(F)C(F)(F)F [1H,1H,2H,2H-perfluorooctanol] + CCCCn1cc[n+](C)c1.F[B-](F)(F)F
[1]
Settings	refractive index
568.17 K, x2 = 0.483	1.3609 ± 0.0021
568.17 K, x2 = 0.975	1.417 ± 0.002
569.9 K, x2 = 0.514	1.3635 ± 0.0021
569.9 K, x2 = 0.972	1.4162 ± 0.002
570.62 K, x2 = 0.528	1.3648 ± 0.0021
570.62 K, x2 = 0.969	1.4157 ± 0.002
571.13 K, x2 = 0.539	1.3658 ± 0.0021
571.13 K, x2 = 0.967	1.4153 ± 0.0021
571.88 K, x2 = 0.555	1.3673 ± 0.0021
571.88 K, x2 = 0.963	1.4146 ± 0.0021
572.59 K, x2 = 0.569	1.3686 ± 0.0021
572.59 K, x2 = 0.96	1.414 ± 0.002
573.11 K, x2 = 0.585	1.3701 ± 0.002
573.11 K, x2 = 0.958	1.4137 ± 0.0021
573.58 K, x2 = 0.595	1.3712 ± 0.002
573.58 K, x2 = 0.953	1.4128 ± 0.0021
574.07 K, x2 = 0.61	1.3726 ± 0.0021
574.07 K, x2 = 0.946	1.4119 ± 0.0021
574.57 K, x2 = 0.62	1.3736 ± 0.0021
574.57 K, x2 = 0.944	1.4115 ± 0.0021
575.11 K, x2 = 0.641	1.3757 ± 0.0021
575.11 K, x2 = 0.935	1.4102 ± 0.002
575.59 K, x2 = 0.663	1.378 ± 0.0021
575.59 K, x2 = 0.93	1.4096 ± 0.002
576.09 K, x2 = 0.684	1.3803 ± 0.002
576.09 K, x2 = 0.917	1.4078 ± 0.0021
576.69 K, x2 = 0.729	1.3852 ± 0.0021
576.69 K, x2 = 0.892	1.4045 ± 0.0021

OCCC(F)(F)C(F)(F)C(F)(F)C(F)(F)C(F)(F)C(F)(F)F [1H,1H,2H,2H-perfluorooctanol]
Settings	mass density [kg/m3]	refractive index	relative permittivity
[2], 291.15 K	1692.2 ± 0.9	–	–
[2], 293.15 K	1688.7 ± 0.9	–	–
[2], 295.14 K	1685.2 ± 0.9	–	–
[2], 298.15 K	1679.9 ± 0.9	–	–
[2], 300.14 K	1676.4 ± 0.9	–	–
[2], 303.15 K	1671 ± 0.9	–	–
[2], 305.14 K	1667.5 ± 0.9	–	–
[2], 308.15 K	1662.1 ± 0.8	–	–
[2], 310.14 K	1658.5 ± 0.8	–	–
[3], 292.89 K	–	1.3152 ± 0.0021	–
[3], 297.98 K	–	1.3134 ± 0.0021	–
[3], 300.94 K	–	1.3125 ± 0.0021	–
[3], 304.98 K	–	1.3112 ± 0.0021	–
[3], 307.95 K	–	1.3101 ± 0.0021	–
[3], 308.13 K	–	1.31 ± 0.0021	–
[4], 293.15 K	–	–	9.67 ± 0.02
[4], 298.15 K	–	–	9.21 ± 0.02
[4], 303.15 K	–	–	8.83 ± 0.02
[4], 308.15 K	–	–	8.46 ± 0.02
[4], 313.15 K	–	–	8.12 ± 0.02

CCCCn1cc[n+](C)c1.F[B-](F)(F)F [1-butyl-3-methylimidazolium tetrafluoroborate]
Settings	mass density [kg/m3]	refractive index
[2], 291.15 K	1206.3 ± 0.4	–
[2], 293.15 K	1204.9 ± 0.4	–
[2], 295.14 K	1203.5 ± 0.4	–
[2], 298.15 K	1201.3 ± 0.4	–
[2], 300.14 K	1199.9 ± 0.4	–
[2], 303.15 K	1197.7 ± 0.4	–
[2], 305.14 K	1196.3 ± 0.4	–
[2], 308.15 K	1194.1 ± 0.4	–
[2], 310.14 K	1192.7 ± 0.4	–
[3], 292.99 K	–	1.4207 ± 0.002
[3], 298.14 K	–	1.4194 ± 0.002
[3], 300.94 K	–	1.4187 ± 0.002
[3], 303.06 K	–	1.4182 ± 0.002
[3], 307.96 K	–	1.4169 ± 0.002
